Legend:
A-375 [1] = test: Effect on apoptotic human A-375 cell death treated with DMSO(control) at a concentration of 10 uM; assay type: functional
A-375 [2] = test: Effect on apoptotic human A-375 cell death treated with DMSO(control) at a concentration of 25 uM; assay type: functional
A-375 [3] = test: Effect on apoptotic human A-375 cell death treated with DMSO(control) at a concentration of 40 uM; assay type: functional
A-375 [4] = test: Effect on apoptotic human A-375 cell death treated with DMSO(control) at a concentration of 50 uM; assay type: functional
A-375 [5] = test: Effect on alive human A-375 cell death treated with DMSO(control) at a concentration of 10 uM; assay type: functional
A-375 [6] = test: Effect on alive human A-375 cell death treated with DMSO(control) at a concentration of 25 uM; assay type: functional
A-375 [7] = test: Effect on alive human A-375 cell death treated with DMSO(control) at a concentration of 40 uM; assay type: functional
A-375 [8] = test: Effect on alive human A-375 cell death treated with DMSO(control) at a concentration of 50 uM; assay type: functional
A-375 [9] = test: Effect on necrotic human A-375 cell death treated with DMSO(control) at a concentration of 10 uM; assay type: functional
A-375 [10] = test: Effect on necrotic human A-375 cell death treated with DMSO(control) at a concentration of 25 uM; assay type: functional
A-375 [11] = test: Effect on necrotic human A-375 cell death treated with DMSO(control) at a concentration of 40 uM; assay type: functional
A-375 [12] = test: Effect on necrotic human A-375 cell death treated with DMSO(control) at a concentration of 50 uM; assay type: functional
A-375 [13] = test: Percentage inhibition of proliferation against alive human A-375 cells treated with DMSO (control) at a concentration of 40 uM; assay type: functional
A-375 [14] = test: Percentage inhibition of proliferation against alive human A-375 cells treated with DMSO (control) at a concentration of 50 uM; assay type: functional
A-375 [15] = test: Percentage of alive human A-375 cells relative to DMSO-treated control at a concentration of 10 uM
A-375 [16] = test: Percentage of alive human A-375 cells relative to DMSO-treated control at a concentration of 25 uM
A-375 [17] = test: Percentage of alive human A-375 cells relative to DMSO-treated control at a concentration of 15 uM
A-375 [18] = test: Percentage inhibition of proliferation against alive human A-375 cells treated with DMSO (control) at a concentration of 350 uM; assay type: functional

SMILES	Activity (A-375 [1])	Activity (A-375 [2])	Activity (A-375 [3])	Activity (A-375 [4])	Activity (A-375 [5])	Activity (A-375 [6])	Activity (A-375 [7])	Activity (A-375 [8])	Activity (A-375 [9])	Activity (A-375 [10])	Activity (A-375 [11])	Activity (A-375 [12])	inhibition at 40 µM (A-375 [13])	inhibition at 50 µM (A-375 [14])	alive cells at 10 µM (A-375 [15])	alive cells at 25 µM (A-375 [16])	alive cells at 15 µM (A-375 [17])	inhibition at 350 µM (A-375 [18])
Cc1c(C(C)c2c(F)cccc2F)nc(SC2CCCC2)[nH]c1=O (centres undefined)	2.3%	2.6%	1%	12.8%	96.7%	96.4%	98.7%	80%	1%	1%	0.3%	7.2%	65%	14%	77%	72%	–	–
O=C1Nc2ccc(Cl)cc2[C@@](C#CC2CC2)(C(F)(F)F)O1 [EFAVIRENZ]	–	–	–	–	–	–	–	–	–	–	–	–	–	–	–	–	51%	–
Cc1c(C(C)c2c(F)cccc2F)nc(N(C)C)[nH]c1=O (centres undefined)	1.8%	2.3%	3.1%	8.4%	97.4%	96.3%	96%	89%	0.8%	1%	0.9%	2.6%	42%	30%	91%	86%	–	–
Cc1ccnc2c1NC(=O)c1cccnc1N2C1CC1 [NEVIRAPINE]	–	–	–	–	–	–	–	–	–	–	–	–	–	–	–	–	–	35%

From ChEMBL document CHEMBL1141132, “6-[1-(2,6-difluorophenyl)ethyl]pyrimidinones antagonize cell proliferation and induce cell differentiation by inhibiting (a nontelomeric) endogenous reverse transcriptase” (2005)
